Assay in all cases: CTG assay, effect on proliferation ability of tumor cells
Common to all, as to type: cell-based, human

The test system of one assay is Calu-3. The settings on record: Calu-3, 168 h, read-out: IC50 (nM) Calu-3. As for the experimental part:
(§1) Test method for the effect of camptothecin on the proliferation ability of tumor cells: The effect of camptothecin derivatives K1, K2, K3, K4, K5, K6, K7, K8, and K9 on the proliferation ability of tumor cells was tested using the CTG assay. Test cells (see Table 1) were digested, resuspended, and counted. The supernatant was removed by centrifugation, and the cell density was adjusted. Cell counting was performed with a cell counter: 20 µl of the cell suspension was aspirated, mixed with 20 µl of trypan blue, and 20 µl of the mixture was taken for cell counting. Cells were seeded into 96-well cell culture plates respectively, with 180 µl added to each well, and 1000 cells were plated per well. The plate was tapped gently to mix, and then placed in a 37°C cell incubator for incubation for 16 hours. Compounds were diluted with McCoy's 5A medium, and 20 µl was added to each well to achieve a maximum concentration of 100 nM, followed by 3-fold serial dilution with 10 concentration points. DMSO was used as the vehicle control, and 20 µl of McCoy's 5A medium was added to the blank control. The plate was tapped gently to mix, and then placed in a 37°C cell incubator for incubation for 7 days. After 7 days of incubation, the cell plate was taken out of the incubator, the culture medium was aspirated, 20 µl of culture medium was added to each well, and then 20 µl of CTG was added to each well. The plate was shaken on a shaker for 5 min and incubated at room temperature for 10 min. Then, 30 µl of the reaction solution was transferred to a Viewplate-96 white microplate (transparent bottom), and data analysis was performed on an EnVision microplate reader. [formula] Table 1. Overview of cell lines used in this screening

The test system of the next assay is HCT-116. The conditions noted are these: HCT-116, 168 h, read-out: IC50 (nM) HCT-116. How it is done:
as §1

For another assay, the system named is NCI-N87. The conditions noted are these: NCI-N87, 168 h, read-out: IC50 (nM) NCI-N87. As for the experimental part:
as §1

Setting [1] is: human lung adenocarcinoma cells, 7 days incubation, CTG.
Setting [2] is: human colon cancer cells, 7 days incubation, CTG.
The mark [3] stands for this setting: human gastric cancer cells, 7 days incubation, CTG.

Each structure is given as a SMILES string. Like-named read-outs stand apart in the source and are kept apart here.

These results are taken from patent publication EP4748842A1, “CAMPTOTHECIN COMPOUND, ANTIBODY DRUG CONJUGATE, AND PREPARATION METHOD THEREFOR AND USE THEREOF” (Shanghai Pharmaceuticals Holding Co., Ltd., priority 2023, dated 2025).

For orientation: IC50 means the concentration needed to halve the response being measured.

`CC[C@@]1(O)C(=O)OCc2c1cc1n(c2=O)Cc2c-1nc1cc(F)c(C)cc1c2-c1ccn(CCO)n1` [Compound K7]: the half-maximal inhibitory concentration (IC50) in the assay on Calu-3 (setting [1]) was 1.13 nM; with HCT-116 (setting [2]) it was 2.24 nM; with NCI-N87 (setting [3]), 5.34 nM.

For the molecule `CC[C@@]1(O)C(=O)OCc2c1cc1n(c2=O)Cc2c-1nc1cc(F)c(C)cc1c2-c1cn(CCCO)nn1` [Compound K2], the figures for the half-maximal inhibitory concentration (IC50) in the assay with Calu-3 (setting [1]), in the assay with HCT-116 (setting [2]) and in the assay on NCI-N87 (setting [3]) were 0.29 nM, 0.89 nM and 2.21 nM, respectively.

On to `CC[C@@]1(O)C(=O)OCc2c1cc1n(c2=O)Cc2c-1nc1cc(F)c(C)cc1c2-c1cnn(CCCO)c1` [Compound K5], for which the IC50 in the assay on Calu-3 (setting [1]) stood at 0.18 nM; with HCT-116 (setting [2]), 0.35 nM; with NCI-N87 (setting [3]), 2.07 nM.

Regarding `CC[C@@]1(O)C(=O)OCc2c1cc1n(c2=O)Cc2c-1nc1cc(F)c(C)cc1c2-c1ccn(CCCO)n1` [Compound K8], the IC50 in the assay on Calu-3 (setting [1]) worked out at 1.24 nM; in the assay with HCT-116 (setting [2]), 3.21 nM; in the assay on NCI-N87 (setting [3]), 6.76 nM.

Consider `CC[C@@]1(O)C(=O)OCc2c1cc1n(c2=O)Cc2c-1nc1cc(F)c(C)cc1c2-c1cn(CCCCO)nn1` [Compound K3], for which the IC50 amounted to 0.43 nM in the assay with Calu-3 (setting [1]), 1.36 nM in the assay with HCT-116 (setting [2]) and 3.11 nM in the assay on NCI-N87 (setting [3]).

With `CC[C@@]1(O)C(=O)OCc2c1cc1n(c2=O)Cc2c-1nc1cc(F)c(C)cc1c2-c1cn(CCO)nn1` [Compound K1], the IC50 with Calu-3 (Homo sapiens) came out at 0.22 nM; with HCT-116 (Homo sapiens), 0.77 nM; in the assay with NCI-N87 (Homo sapiens), 1.89 nM.

As for `CC[C@@]1(O)C(=O)OCc2c1cc1n(c2=O)Cc2c-1nc1cc(F)c(C)cc1c2-c1cnn(CCO)c1` [Compound K4], the half-maximal inhibitory concentration (IC50) is 0.15 nM with Calu-3 (Homo sapiens), 0.42 nM with HCT-116 (Homo sapiens) and 1.72 nM with NCI-N87 (Homo sapiens).

Consider `CC[C@@]1(O)C(=O)OCc2c1cc1n(c2=O)Cc2c-1nc1cc(F)c(C)cc1c2-c1ccn(CCCCO)n1` [Compound K9], for which the half-maximal inhibitory concentration (IC50) in the assay on Calu-3 (setting [1]) was found to be 1.89 nM; in the assay with HCT-116 (setting [2]) it was 3.87 nM; in the assay with NCI-N87 (setting [3]), 7.82 nM.

As to `CC[C@@]1(O)C(=O)OCc2c1cc1n(c2=O)Cc2c-1nc1cc(F)c(C)cc1c2-c1cnn(CCCCO)c1` [Compound K6], the half-maximal inhibitory concentration (IC50) with Calu-3 (setting [1]) is 0.28 nM; in the assay with HCT-116 (setting [2]), 0.78 nM; with NCI-N87 (setting [3]) it was 2.88 nM.
